In US10316020B2, “Indane derivatives and the use thereof as soluble guanylate cyclase activators” (NOVARTIS AG, priority 2015, dated 2019):
Where two headings read alike, the source gives them in different places.

What was measured:
[1] = Pharmacokinetic clearance in intravenously dosed rats; format: in vivo; conditions: male, Sprague-Dawley, rat, whole blood, iv, 0.5 mg/kg
Method: Sprague-Daley rats were administered sGC activators intravenously to assess the systemic clearance rates of the compounds from blood by non-compartmental analysis. Compounds with high clearance rates may be less prone to exert unwanted systemic (non-local) pharmocoligcal effects, which may be a benefical property for a compound intended to be dosed via topical ocular administration with the aim of exerting a pharmacological reponse locally in the eye.
In order to assess the pharmacokinetic parameters, male Sprague-Dawley rats were given 1 mL/Kg of the dosing solution (delineated in the table below) containing a test article (0.5 mg/kg) per kg of body weight via slow intravenous injection into an indwelling jugular vein catheter in a discrete PK study. Alternatively, male Sprague-Dawley rats were given 1 mL/Kg of the dosing solution containing three test articles (0.5 mg/kg each, 1.5 mg/kg total) per kg of body weight via slow intravenous injection into an indwelling jugular vein catheter in a cassette PK study. Diet and water was provided ad libitum without exception. At specified time following a single intravenous bolus injection, approximately 100 μL of whole blood was collected from indwelling catheter in jugular vein. The blood was stored frozen at −20° C. before an LC-MS/MS method was used to quantitate drug levels in the blood. All pharmacokinetic (PK) parameters were derived from concentration-time data by non-compartmental analyses using WinNonlin Phoenix version 6.4 (Certara, St. Louis, Mo.). For the intravenous dose, the concentration of unchanged compound at time 0 was calculated based on a log-linear regression of first two data points to back-extrapolate C(0). The area under the concentration-time curve was calculated using the linear trapezoidal rule.
Data in Table 2 collected using the assay of Biological Example 2 compares compounds from the present invention to other sGC activators previously disclosed PCT/IB2015/055006 filed Jul.

[2] = target: T1, soluble guanylate cyclase (GUCYA3/GUCYB3) overexpressed in CHO cells (Homo sapiens, UniProt Q02108+Q02153); assay: CHO cellular assay (cGMP production, HTRF); format: cell-based
T1 construct: expressed in transfected cells
T1 sequence (Q02108 1-690 partner): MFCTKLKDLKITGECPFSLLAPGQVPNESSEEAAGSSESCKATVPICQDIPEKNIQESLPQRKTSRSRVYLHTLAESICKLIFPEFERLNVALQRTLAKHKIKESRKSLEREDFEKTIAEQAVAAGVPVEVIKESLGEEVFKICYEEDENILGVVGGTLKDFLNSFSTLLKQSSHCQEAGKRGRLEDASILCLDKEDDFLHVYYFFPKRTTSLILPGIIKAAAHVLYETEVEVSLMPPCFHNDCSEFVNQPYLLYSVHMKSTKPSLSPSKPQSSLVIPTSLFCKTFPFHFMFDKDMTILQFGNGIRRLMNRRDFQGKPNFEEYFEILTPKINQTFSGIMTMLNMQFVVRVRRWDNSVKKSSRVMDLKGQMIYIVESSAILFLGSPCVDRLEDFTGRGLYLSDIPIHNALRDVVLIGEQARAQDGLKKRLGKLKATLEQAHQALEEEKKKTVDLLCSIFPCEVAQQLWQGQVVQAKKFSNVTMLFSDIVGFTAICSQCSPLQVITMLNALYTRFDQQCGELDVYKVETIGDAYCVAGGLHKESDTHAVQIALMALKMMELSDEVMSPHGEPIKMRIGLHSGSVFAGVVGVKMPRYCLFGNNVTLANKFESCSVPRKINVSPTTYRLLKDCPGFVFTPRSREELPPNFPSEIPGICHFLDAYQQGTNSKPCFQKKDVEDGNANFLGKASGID
T1 sequence (Q02153 1-619): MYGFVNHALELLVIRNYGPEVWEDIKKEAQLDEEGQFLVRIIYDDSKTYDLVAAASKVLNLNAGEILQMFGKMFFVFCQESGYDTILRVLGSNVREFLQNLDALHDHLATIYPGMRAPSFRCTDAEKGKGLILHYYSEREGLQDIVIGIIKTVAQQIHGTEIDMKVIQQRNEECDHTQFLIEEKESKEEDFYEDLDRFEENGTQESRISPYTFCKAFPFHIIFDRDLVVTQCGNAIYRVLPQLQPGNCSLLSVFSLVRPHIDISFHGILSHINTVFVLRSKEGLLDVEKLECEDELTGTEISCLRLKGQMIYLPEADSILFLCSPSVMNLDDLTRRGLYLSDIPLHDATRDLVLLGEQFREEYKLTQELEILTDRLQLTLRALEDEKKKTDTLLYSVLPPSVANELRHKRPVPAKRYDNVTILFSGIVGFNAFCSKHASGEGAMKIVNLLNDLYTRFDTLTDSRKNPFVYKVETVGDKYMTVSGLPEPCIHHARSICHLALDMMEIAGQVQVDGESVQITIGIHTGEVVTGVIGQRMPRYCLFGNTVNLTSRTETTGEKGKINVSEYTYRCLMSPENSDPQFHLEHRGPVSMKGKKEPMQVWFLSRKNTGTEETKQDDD
Description: Chinese hamster ovary (CHO) cells overexpressing soluble guanylate cyclase were generated to test the effect of sGC activators in a cellular context. Human cDNAs for GUCYA3 (RefSeq: NM_000856.3) and GUCYB3 (RefSeq: NM_000857.1) were amplified by PCR from a HUVEC (Human Umbilical Vein Endothelial Cells) cDNA library and cloned into mammalian expression vectors. CHO K1 cells (ATCC CCL-61) were transfected using Lipofectamine 2000 following manufacturer's instructions and stably expressing clones were identified by antibiotic selection. CHO GUCY clone 8E10 was used for subsequent experiments.
Cells were seeded at a density of 3000 cells/well in white 384-well proxyplates (Perkin Elmer) and incubated overnight, then the medium was removed and cells were washed with assay buffer (HBSS, 0.1% BSA, 1 mM IBMX, 20 uM ODQ). sGC activators were serially diluted in DMSO, then diluted in assay buffer prior to adding to cells (10 ul/well, final DMSO concentration 0.5%). Cells were incubated with compounds for 1 h at room temperature, then assayed for cGMP production using Cisbio cGMP HTRF kit (62GM2PEC) according to manufacturer's instructions.
The EC50s are calculated based on the amount of cGMP interpolated from the standard curve, using a 4-parameter sigmoidal dose-response.
Compounds of invention are active on sGC activation. Data in Table 1 collected using the assay of Biological Example 1.

[3] = CHO cellular assay, as repeated in Table 2, read-out: EC50 from biological Example #1
[4] = i.v. 0.5 mg/kg each, three test articles, Cassette - E (10% propylene glycol, 10% Solutol HS15, PBS)
[5] = i.v. 0.5 mg/kg, Discrete - D (10% propylene glycol, 10% Solutol HS15, PBS)
[6] = CHO GUCY clone 8E10, assay buffer with 1 mM IBMX, 20 uM ODQ, 1 h at room temperature, cGMP HTRF, quantification limit 0.0005 μM, read-out: Mean EC50

For `Cc1cc(C2CCN(C(=O)C3CC3)CC2)ccc1NC1CCc2cccc(-c3cccc(-n4ncc(C(=O)O)c4C)c3)c21` (single isomer, unassigned; (+)) [(+)-1-(3-(3-((4-(1-(cyclopropanecarbonyl)piperidin-4-yl)-2-methylphenyl)amino)-2,3-dihydro-1H-inden-4-yl)phenyl)-5-methyl-1H-pyrazole-4-carboxylic acid, reference compound], the clearance ([1]; i.v. 0.5 mg/kg each, three test articles, Cassette - F (20% propylene glycol, 10% Solutol HS15, PBS)) was 24.9 mL/min/kg and the EC50 [2, 3] was < 0.5 nM.
With `Cc1cc(C2CCN(C(=O)C3CC3)CC2)ccc1CC1CCc2cccc(-c3cccc(-n4ncc(C(=O)O)c4C)n3)c21` (single isomer, unassigned; (+)) [(+)-1-(6-(3-(4-(1-(cyclopropanecarbonyl)piperidin-4-yl)-2-methylbenzyl)-2,3-dihydro-1H-inden-4-yl)pyridin-2-yl)-5-methyl-1H-pyrazole-4-carboxylic acid] the clearance [1, 4] was 97.2 mL/min/kg, the clearance [1, 5] was 25.6 mL/min/kg and the EC50 [2, 3] was < 0.5 nM.
For `CCc1cc(OC2CCc3cccc(-c4cccc(-n5ncc(C(=O)O)c5CC)n4)c32)ccc1C1CCN(C(=O)C2CC2)CC1` (single isomer, unassigned; (+)) [(+)-1-(6-(3-(4-(1-(cyclopropanecarbonyl)piperidin-4-yl)-3-ethylphenoxy)-2,3-dihydro-1H-inden-4-yl)pyridin-2-yl)-5-ethyl-1H-pyrazole-4-carboxylic acid], the clearance [1, 4] was 6.6 mL/min/kg, the clearance ([1]; i.v. 0.5 mg/kg, Discrete - G (20% propylene glycol, 50% of 20% Solutol HS15, water)) was 14 mL/min/kg and the EC50 [2, 3] was < 0.5 nM.
With `CCc1cc(NC2CCc3cccc(-c4cccc(-n5ncc(C(=O)O)c5CC)n4)c32)ccc1C1=CCN(C(=O)C2CC2)CC1` (single isomer, unassigned; (+)) [(+)-1-(6-(3-((4-(1-(cyclopropanecarbonyl)-1,2,3,6-tetrahydropyridin-4-yl)-3-ethylphenyl)amino)-2,3-dihydro-1H-inden-4-yl)pyridin-2-yl)-5-ethyl-1H-pyrazole-4-carboxylic acid, reference compound] the clearance [1, 5] was 38 mL/min/kg and the EC50 [2, 3] was < 0.5 nM.
In the case of `CCc1cc(NC2CCc3cccc(-c4cccc(-n5ncc(C(=O)O)c5OC)c4)c32)ccc1C1CCN(C(=O)[C@H](C)O)CC1` (single isomer, unassigned; (+)) [Example 4A], the clearance ([1]; i.v. 0.5 mg/kg, Discrete - C (20% PEG 300, 10% Solutol HS15, PBS)) is reported as > 100 mL/min/kg, the EC50 [2, 6] is reported as < 0.5 nM and the EC50 [2, 3] is reported as < 0.5 nM.
Work on `CCc1cc(NC2CCc3cccc(-c4cccc(-n5ncc(C(=O)O)c5N)n4)c32)ccc1C1CCN(C(=O)C2CC2)CC1` (single isomer, unassigned; (+)) [Example 18A, (+)-5-Amino-1-(6-(3-((4-(1-(cyclopropanecarbonyl)piperidin-4-yl)-3-ethylphenyl)amino)-2,3-dihydro-1H-inden-4-yl)pyridin-2-yl)-1H-pyrazole-4-carboxylic acid] yielded a clearance [1, 5] of 98 mL/min/kg, an EC50 [2, 6] of 7 nM and an EC50 [2, 3] of 7 nM.
In the case of `Cc1cc(C2CCN(C(=O)[C@H](C)O)CC2)ccc1NC1CCc2cccc(-c3cccc(-n4ncc(C(=O)O)c4C)n3)c21` (single isomer, unassigned; (+)) [reference compound], the clearance [1, 4] is reported as 48.3 mL/min/kg and the EC50 [2, 3] is reported as < 0.5 nM.
In the case of `CCc1cc(C[C@H]2CCc3cccc(-c4cccc(-n5ncc(C(=O)O)c5OC)c4)c32)ccc1C1CCN(C(=O)C2CC2)CC1` [Example 1A, (+)-(R)-1-(3-(3-(4-(1-(Cyclopropanecarbonyl)piperidin-4-yl)-3-ethylbenzyl)-2,3-dihydro-1H-inden-4-yl)phenyl)-5-methoxy-1H-pyrazole-4-carboxylic acid], the clearance ([1]; i.v. 0.5 mg/kg, Discrete - A (10% propylene glycol, 1 eq NaOH, 25% of 20% Solutol HS15, PBS)) is reported as > 100 mL/min/kg, the EC50 [2, 6] is reported as < 0.6 nM and the EC50 [2, 3] is reported as < 0.6 nM.
In the case of `CCc1cc(N[C@H]2CCc3cccc(-c4cccc(-n5ncc(C(=O)O)c5OC)c4)c32)ccc1C1CCN(C(=O)C2CC2)CC1` [Example 3A, (+)-(S)-1-(3-(3-((4-(1-(Cyclopropanecarbonyl)piperidin-4-yl)-3-ethylphenyl)amino)-2,3-dihydro-1H-inden-4-yl)phenyl)-5-methoxy-1H-pyrazole-4-carboxylic acid], the clearance ([1]; i.v. 0.5 mg/kg, Discrete - B (20% PEG 300, 1 eq NaOH, 10% Solutol HS15, PBS)) is reported as > 100 mL/min/kg, the EC50 [2, 6] is reported as < 0.5 nM and the EC50 [2, 3] is reported as < 0.5 nM.
With `CCc1cc(O[C@H]2CCc3cccc(-c4cccc(-n5ncc(C(=O)O)c5OC)c4)c32)ccc1C1CCN(C(=O)C2CC2)CC1` [Example 5, (+)-(S)-1-(3-(3-(4-(1-(Cyclopropanecarbonyl)piperidin-4-yl)-3-ethylphenoxy)-2,3-dihydro-1H-inden-4-yl)phenyl)-5-methoxy-1H-pyrazole-4-carboxylic acid] the clearance [1, 5] was 89 mL/min/kg, the EC50 [2, 6] was < 0.5 nM and the EC50 [2, 3] was < 0.5 nM.
In the case of `CCc1cc(C[C@H]2CCc3cccc(-c4cccc(-n5ncc(C(=O)O)c5OC)n4)c32)ccc1C1CCN(C(=O)[C@H](C)O)CC1` [Example 24, (+)-(R)-1-(6-(3-(3-Ethyl-4-(1-((S)-2-hydroxypropanoyl)piperidin-4-yl)benzyl)-2,3-dihydro-1H-inden-4-yl)pyridin-2-yl)-5-methoxy-1H-pyrazole-4-carboxylic acid], the EC50 [2, 6] is reported as < 0.5 nM.
